Assay results published in publication PMC11284787, “Ligand-Directed Labeling of the Adenosine A1 Receptor in Living Cells” (Journal of Medicinal Chemistry, 2024).

Assays:
[1] = target: T1, NL-hA1AR (Homo sapiens, UniProt P30542); assay: NanoBRET saturation ligand-binding assay, NL-hA1AR
T1 construct: expressed in transfected cells
T1 sequence (P30542 1-326): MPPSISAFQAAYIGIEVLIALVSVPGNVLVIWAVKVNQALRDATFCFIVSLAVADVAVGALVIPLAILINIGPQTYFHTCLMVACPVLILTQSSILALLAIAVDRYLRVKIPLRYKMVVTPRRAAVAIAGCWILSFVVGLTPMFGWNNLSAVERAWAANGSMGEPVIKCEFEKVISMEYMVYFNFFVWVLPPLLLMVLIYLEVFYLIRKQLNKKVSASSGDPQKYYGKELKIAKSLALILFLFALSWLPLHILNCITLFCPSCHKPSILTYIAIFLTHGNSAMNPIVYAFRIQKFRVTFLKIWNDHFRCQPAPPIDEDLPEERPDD
Method: The ligand-binding properties of the newly synthesized probes were assessed in a series of pharmacological assays. Initially, a NanoBRET[47],[48] saturation binding experiment was used to evaluate the binding affinity of ligand-directed probes functionally labeled with the SulfoCy5 fluorophore (11) to the NanoLuc(NL)-tagged[49] hA1AR expressed in HEK293T cells.
NanoBRET binding assay. All NanoBRET experiments were performed in white flat […]
(§1) 37 °C for kinetic binding experiments. Emissions were read at 420 nm (80 nm bandpass; […]
the SulfoCy5-labelled probe. […]
nm emission by the 420 nm emission. The term “raw BRET ratio” refers to the unprocessed data as no background ratio has been subtracted. In all NanoBRET binding […]
competitive antagonist selective for the adenosine receptor under investigation […]
MRS1220 for the A3AR). HEK293T cells stably/transiently expressing Nluc-AR were […]
were incubated for 1 h at 37 °C. […]
NanoBRET saturation binding assay. Total and nonspecific saturation binding curves were fit simultaneously using the following equation: […]

[2] = target: T1, NL-hA1AR; assay: NanoBRET dissociation kinetics, NL-hA1AR HEK293T cells; format: binding; details: cells prelabeled with 250 nM for 5 h, BRET monitored 60 min
Method: Figure 3 Molecular pharmacology and biochemical characterization of 11 and 12. NanoBRET ligand-binding data were measured in HEK293 cells stably expressing the human NL-A1AR (A–C) or rat NL-A1AR (D–F). […] Data were normalized to maximal BRET signals in the absence of unlabeled competing ligands (total binding, TB). (C, F) NanoBRET dissociation kinetics experiments with 11 (SulfoCy5) performed in human and rat NL-A1AR HEK293T cells, respectively. Cells were treated with 250 nM 11 (SulfoCy5, lilac open circles) for 5 h and CA200645 (black open triangles) for 2 h. […] TS-SNAP-A1AR was purified and separated on an SDS-PAGEgel gel, and direct Cy5 fluorescence was visualized using in-gel fluorescence. […]
The small reduction in the BRET signal observed toward the end of the reads could be mostly likely ascribed to substrate (furimazine) consumption. […] To confirm covalent labeling of A1AR by 11 and 12, HEK293G cells stably expressing a Twin-Strep-SNAP-A1AR(TS-SNAP-A1R) construct were treated with 11 or 12 prior to purification, separation by sodium dodecyl sulfate-polyacrylamide gel electrophoresis (SDS-PAGE) and visualization of labeled samples by in-gel fluorescence (Figure 3G). […]
as §1

[3] = test system: nontransfected HEK293 cells; assay: Confocal assessment of non-specific labelling in non-transfected HEK293T cells; format: cell-based, human; details: 125 nM; cells do not express the A1AR
Description: Having investigated the molecular pharmacology of 11 and 12 in a series of in vitro assays, we sought to apply the LD probes for studying A1AR localization and dynamics in living cells. To this end, LD probes 11 and 12 were initially used in confocal microscopy studies to test their ability to label and allow visualization of the SNAP-hA1AR in living HEK293T cells (Figure 6). […] With both probes, the fluorescence labeling colocalized with SNAP-hA1AR labeled with AF488 (Figure 6A,C top frames).
Supplementary Figures: Pharmacology
Figure S1. Fluorescence spectra of SulfoCy5-conjugated methyltetrazine in the absence or in the presence of probe 12 (PEG-TCO). “Turn-on” type reaction of tetrazine (Met-TetSulfoCy5) with PEGylated trans-cyclooctene (PEG-TCO)-labelled 12. Fluorescence excitation and emission spectra measured in HBSS with the corresponding tetrazineSulfoCy5 [100 nM] without, then with 12 (PEG-TCO) [1 µM] (allowed to react for 10 min prior detection). Exc maxima (Met-TetSulfoCy5 + PEG-TCO) = 1.80-fold increase compared to Met-TetSulfoCy5 alone; Em maxima (Met-TetSulfoCy5 + TCO) = 1.40-fold; Excitation and emission fluorescence spectra (1 nm step width) were measured were recorded on a CLARIOstar plate reader (BMG Labtech).
Figure S2. Assessment of 11 non-specific labelling performed in non-transfected live HEK293T cells. Left hand frame corresponds to SulfoCy5 channel. […]

## CCCCn1c(=O)c2[nH]c(C34CCC(C(=O)NCCNC(=O)CCNC(=O)c5ccc(OC(=O)CCCCC[N+]6=C(/C=C/C=C/C=C7/N(C)c8ccc(S(=O)(=O)O)cc8C7(C)C)C(C)(C)c7cc(S(=O)(=O)[O-])ccc76)c(F)c5)(CC3)CC4)nc2n(CCCC)c1=O [Compound 11, 1-(6-(4-((3-((2-(4-(1,3-Dibutyl-2,6-dioxo-2,3,6,7-tetrahydro-1H-purin-8-yl)bicyclo[2.2.2]octane-1-carboxamido)ethyl)amino)-3-oxopropyl)carbamoyl)-2-fluorophenoxy)-6-oxohexyl)-3,3-dimethyl-2-((1E,3E)-5-((E)-1,3,3-trimethyl-5-sulfoindolin-2-ylidene)penta-1,3-dien-1-yl)-3H-indol-1-ium-5-sulfonate]
[1]; HEK293T cells stably expressing NL-hA1AR, 1 h 37 °C, mean ± SEM, read-out: affinity values pKD, NL-hA1AR (converted)
  Kd: 30.9 nM
[1]; selectivity from pKD values
  greater affinity for the NL-A1AR compared to the NL-A2AAR (saturation binding): 7 fold
[2]
  change in BRET signal after addition of 10 μM DPCPX: very little change in the BRET signal
[3]
  fluorescent signal in nontransfected HEK293 cells: did not produce any detectable fluorescent signal
